The values below come from patent US7713969B2, “Compositions and methods for treatment of cancer” (ArQule, Inc., priority 2005, dated 2010).

One may read the IC50 as the concentration that gives 50% inhibition.

Experiment [1] deals with MDA-MB-231 cells or Paca-2 cells. The experiment is described as follows: Cell survival in six-well plates, Wright-Giemsa stain (Example 77). In kind it is cell-based. To be noted: Homo sapiens; 0.1-2 μM, cultures observed 10-15 days; cell line of the IC50 not stated. The procedure:
Exponentially growing MDA-MB-231 cells or Paca-2 cells were seeded at 1,000 cells per well in six-well plates and allowed to attach for 24 hours. MDA-MB-231 and Paca-2 cells were cultured in DMEM supplemented with 10% (v/v) fetal calf serum (FCS) and 5 ml Penicillin/Streptomycin at 37° C. in 5% CO2. MDA-MB-231 and Paca-2 were established estrogen receptor negative human breast cancer and pancreatic carcinoma cell lines, respectively. (±)-cis-3-(5,6-dihydro-4H-pyrrolo[3,2,1-ij]quinolin-1yl)-4(1H-indol-3-yl)pyrrolidine-2,5-dione or (±)-trans-3-(5,6-dihydro-4H-pyrrolo[3,2,1-ij]quinolin-1-yl)-4(1H-indol-3-yl)pyrrolidine-2,5-dione were each dissolved at a concentration of 10 mM in DMSO, and separately added to cells at a concentration of 0.1, 0.25, 0.5, 1 or 2 μM. Control plates received DMSO alone, at the same percentage of total culture volume as that administered in conjunction with the highest concentration of drug. Cell cultures were observed daily for 10-15 days, then fixed and stained with modified Wright-Giemsa stain (Sigma). Treatment with (±)-cis-3-(5,6-dihydro-4H-pyrrolo [3,2,1-ij]quinolin-1yl)-4(1H-indol-3-yl)pyrrolidine-2,5-dione or (±)-trans-3-(5,6-dihydro-4H-pyrrolo[3,2,1-ij]quinolin-1-yl)-4(1H-indol-3-yl)pyrrolidine-2,5-dione results in cell death of MDA-MB-231 cells or Paca-2 cells. See, e.g., FIG. 2.

The subject of a further experiment is ERK1/2. The experiment is described as follows: ERK1/2 phosphorylation, Western blot (Example 80). The class given is cell-based, human. The settings on record: MDA-MB-231 cells, 100 ng/ml HGF/SF 10 minutes. Here is the method: MDA-MB-231 cells were serum-deprived overnight (16 hours) in the absence or in the presence of the indicated concentrations of the separate enantiomers (+)-trans-3-(5,6-dihydro-4H-pyrrolo[3,2,1-ij]quinolin-1-yl)-4(1H-indol-3-yl)pyrrolidine-2,5-dione and (−)-trans-3-(5,6-dihydro-4H-pyrrolo[3,2,1-ij]quinolin-1-yl)-4(1H-indol-3-yl)pyrrolidine-2,5-dione. Cells were treated with 100 ng/ml recombinant human Hepatocyte Growth Factor/Scatter Factor (HGF/SF) (R&D Systems #294-HG) for 10 minutes. Whole cell extracts were prepared in lysis buffer (20 mM Trwas-HC1 pH 7.5, 150 mM NaCl, 1 mM Na2EDTA, 1 mM EGTA, 1% Triton X-100, 2.5 mM sodium pyrophosphate, 1 mM beta-glycerophosphate, 1 mM Na3VO4, 1 μg/ml leupeptin, 1 mM phenylmethylsulfonyl fluoride) and sonicated. Protein concentration was measured by Bradford assay using the BioRad reagent (BioRad, Hercules, Calif.), according to the manufacturer's directions. Samples (50 μg of protein) were resolved by 8% SDS-PAGE under reducing conditions, and transferred onto a PVDF membrane (BioRad). […] Proteins were detected by incubation overnight at 4° C. in TBS-T with 5% milk and either a polyclonal antibody against phosphorylated c-Met (#3121), phosphorylated Erk1/2 (#9101), total Erk1/2 protein (#9102) (Cell Signaling Technology); or a monoclonal antibody against […] (A-5441) (Sigma), which was used as a control for total protein loading. […]
(In western blotting, separated proteins are transferred to a membrane and probed.)

The target in the next experiment is c-Met (Homo sapiens, UniProt P08581). Briefly: c-Met inhibition, phospho-c-Met blot with densitometry (Example 83). In kind it is cell-based. The arrangement: whole cell extracts were prepared; endogenous in cells; host or cells: MCF-7, MDA-MB-231, DLD1, HT29, PACA2, PANC-1, NCI-H441. The settings on record: 24 hours treatment, read-out: (−)-trans IC50 c-Met Inhibition. The procedure:
To determine c-met inhibition, exponentially growing MCF-7 and MDA-MB-231 human breast cancer cells, DLD1 and HT29 human colon cancer cells, PACA2 and PANC-1 human pancreatic cancer cells and NCI-H441 human non-small cell lung cancer cells (H441) were serum starved in 0.5% FBS and treated with increasing amounts of (−)-trans-3-(5,6-dihydro-4H-pyrrolo [3,2,1-ij]quinolin-1-yl)-4(1H-indol-3-yl)pyrrolidine-2,5-dione for 24 hours as indicated. Cells were then left unstimulated or stimulated with 100 ng/mL HGF for 10 minutes and whole cell extracts were prepared. Whole cell lysates (50 μg) were resolved by SDS-PAGE, transferred onto a PVDF membrane, and an enhanced chemiluminescence assay system (ECL) was used to determine the phosphorylation status of c-Met. A polyclonal antibody against phospho (Y1349) c-Met (phospho-c-Met) was obtained from Biosource International and a monoclonal antibody against β-actin was purchased from Invitrogen. Percent inhibition was determined by densitometry using the Scion Image For colony formation assays (CFA), exponentially growing cells were seeded at 2,000 cells per well in 6-well plates and allowed to attach for 24 hours. Increasing concentrations of (−)-trans-3-(5,6-dihydro-4H-pyrrolo[3,2,1-ij]quinolin-1-yl)-4(1H-indol-3-yl)pyrrolidine-2,5-dione (from 0.01 to 30 μM) were then added to the media for another 24 hours. After 24 hours exposure, the drug was removed and fresh media was added for the next 14-21 days, allowing for colony formation. Cells were fixed and stained with GEMSA (Gibco BRL). Colonies of greater than 50 cells were scored as survivors and percentage of cell survival was plotted to determine the IC50. […] The IC50 of (−)-trans-3-(5,6-dihydro-4H-pyrrolo[3,2,1-ij]quinolin-1-yl)-4(1H-indol-3-yl) pyrrolidine-2,5-dione for c-Met expressing solid tumor types is in the 0.1-0.7 μM range following exposure to (−)-trans-3-(5,6-dihydro-4H-pyrrolo[3,2,1-ij]quinolin-1-yl)-4(1H-indol-3-yl)pyrrolidine-2,5-dione for 24 hours, as determined by colony formation assay (CFA).

Each structure is given as a SMILES string. Where two headings read alike, the source gives them in different places.

Chain of c-Met (P08581 25-1390): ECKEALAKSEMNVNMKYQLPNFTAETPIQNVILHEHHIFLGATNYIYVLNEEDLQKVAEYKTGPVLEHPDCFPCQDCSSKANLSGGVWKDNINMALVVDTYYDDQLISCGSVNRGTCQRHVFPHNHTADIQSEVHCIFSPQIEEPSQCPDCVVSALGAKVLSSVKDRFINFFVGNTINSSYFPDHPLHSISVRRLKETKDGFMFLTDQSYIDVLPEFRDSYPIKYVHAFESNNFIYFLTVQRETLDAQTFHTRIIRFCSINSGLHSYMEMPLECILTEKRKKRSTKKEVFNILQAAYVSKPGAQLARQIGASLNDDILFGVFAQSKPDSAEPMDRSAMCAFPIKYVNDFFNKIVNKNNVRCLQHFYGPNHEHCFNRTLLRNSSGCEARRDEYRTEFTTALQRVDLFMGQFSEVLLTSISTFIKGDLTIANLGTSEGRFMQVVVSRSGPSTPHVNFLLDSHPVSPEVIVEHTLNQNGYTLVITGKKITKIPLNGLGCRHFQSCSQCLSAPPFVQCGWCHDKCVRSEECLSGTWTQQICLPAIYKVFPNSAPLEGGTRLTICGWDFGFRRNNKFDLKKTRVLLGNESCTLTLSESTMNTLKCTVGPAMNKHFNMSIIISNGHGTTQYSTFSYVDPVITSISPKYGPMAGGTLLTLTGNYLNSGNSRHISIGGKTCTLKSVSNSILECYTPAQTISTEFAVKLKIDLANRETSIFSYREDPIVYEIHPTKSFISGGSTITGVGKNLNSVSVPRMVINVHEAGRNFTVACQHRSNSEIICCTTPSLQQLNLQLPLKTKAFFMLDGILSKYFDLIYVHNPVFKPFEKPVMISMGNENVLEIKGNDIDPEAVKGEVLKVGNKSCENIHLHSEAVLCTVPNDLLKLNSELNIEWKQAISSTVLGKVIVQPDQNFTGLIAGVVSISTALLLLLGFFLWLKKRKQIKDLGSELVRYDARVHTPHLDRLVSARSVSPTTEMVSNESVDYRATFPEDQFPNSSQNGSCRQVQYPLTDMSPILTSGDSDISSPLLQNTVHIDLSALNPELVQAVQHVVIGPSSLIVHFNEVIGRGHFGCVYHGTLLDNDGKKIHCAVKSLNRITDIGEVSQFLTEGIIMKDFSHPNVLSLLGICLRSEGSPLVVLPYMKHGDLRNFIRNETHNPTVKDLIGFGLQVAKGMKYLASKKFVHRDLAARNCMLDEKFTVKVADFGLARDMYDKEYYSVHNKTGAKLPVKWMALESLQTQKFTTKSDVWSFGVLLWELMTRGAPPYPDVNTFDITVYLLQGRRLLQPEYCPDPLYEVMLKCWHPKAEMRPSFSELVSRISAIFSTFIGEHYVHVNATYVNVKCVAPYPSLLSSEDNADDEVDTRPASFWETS

As for `O=C1NC(=O)[C@@H](c2cn3c4c(cccc24)CCC3)[C@@H]1c1c[nH]c2ccccc12` (racemic) [(±)-Trans-3-(5,6-dihydro-4H-pyrrolo[3,2,1-ij]quinolin-1-yl)-4(1H-indol-3-yl)pyrrolidine-2,5-dione], the IC50 in experiment [1] stood at 500 nM.
Consider `O=C1NC(=O)C(c2cn3c4c(cccc24)CCC3)C1c1c[nH]c2ccccc12` (single isomer, unassigned; (-)), for which, in the experiment on ERK1/2, the “phosphorylation of ERK1/2” value is “decreases the phosphorylation of ERK1/2”. For the same compound, the IC50 on c-Met (DLD-1 cells) was found to be 3000 nM; at c-Met (H441 cells) it was 100 nM; on c-Met (HT-29 cells) it was 300 nM; on c-Met (MCF-7 cells), 100 nM; at c-Met (MDA-MB-231 cells), 100 nM; at c-Met (PACA2 cells), 100 nM. The IC50 on c-Met (PANC-1 cells) amounted to 500 nM.
